One data set concerns T-cell. The data set can be described thus: Inhibition of ConA-induced T lymphocytes (unknown origin) proliferation. Type of data set: functional, cell-based.
Data set [1] can be described thus: Selectivity index, ratio of CC50 for lymphocytes (unknown origin) to IC50 for ConA-induced T lymphocytes (unknown origin) proliferation. Type of data set: toxicity. As to conditions: read-out: Ratio CC50/IC50.
A short description of data set [2]: Selectivity index, ratio of CC50 for lymphocytes (unknown origin) to IC50 for LPS-induced B lymphocytes (unknown origin) proliferation. Type of data set: toxicity. The following applies: read-out: Ratio CC50/IC50.
Data set [3] can be described thus: Cytotoxicity against lymphocytes (unknown origin) assessed as decrease in cell viability. Type of data set: cell-based, Lymphocyte.
A short description of data set [4]: Inhibition of LPS-induced B lymphocytes (unknown origin) proliferation. It is filed as functional.

The IC50 is the point on the concentration scale where inhibition reaches its midpoint. For orientation: CC50 means the concentration at which the toxic effect on the cells reaches its halfway point.

In the case of `CO[C@H]1[C@@H](O)[C@@H](C)O[C@@H](O[C@H]2[C@@H](OC)C[C@H](O[C@H]3[C@@H](OC)C[C@H](O[C@H]4[C@@H](OC)C[C@H](O[C@@H]5[C@@H](C)O[C@@]6(C[C@H]5OC)OCO[C@@H]5C[C@H](O[C@@H](C)[C@@]7(O)CC[C@H]8[C@@H]9CC=C%10C[C@@H](OC=O)CC[C@]%10(C)[C@H]9CC[C@@]87C)O[C@H](C)[C@H]5O6)O[C@@H]4C)O[C@@H]3C)O[C@@H]2C)[C@@H]1O`, the values for the IC50 (in the data set with T-cell; in data set [4]) were 0.42 µM and 0.86 µM, respectively. The selectivity ratio was determined as 347 in data set [1] and 170 in data set [2]. In data set [3], the CC50 was found to be 146 µM.

Regarding `CO[C@H]1[C@@H](O)[C@@H](C)O[C@@H](O[C@H]2[C@@H](OC)C[C@H](O[C@H]3[C@@H](OC)C[C@H](O[C@H]4[C@@H](O)C[C@H](O[C@@H]5[C@@H](C)O[C@@]6(C[C@H]5OC)OCO[C@@H]5C[C@H](O[C@@H](C)[C@@]7(O)CC[C@H]8[C@@H]9CC=C%10C[C@@H](O)CC[C@]%10(C)[C@H]9CC[C@@]87C)O[C@H](C)[C@H]5O6)O[C@@H]4C)O[C@@H]3C)O[C@@H]2C)[C@@H]1O`, the IC50 in the data set on T-cell turned out to be 0.47 µM; in data set [4], 0.75 µM. Also, the selectivity ratio in data set [1] was more than 426; in data set [2] it was more than 267. Further, the CC50 in data set [3] was more than 200 µM.

Consider `CO[C@H]1[C@@H](O)[C@@H](C)O[C@@H](O[C@H]2[C@@H](OC)C[C@H](O[C@H]3[C@H](O)C[C@H](O[C@H]4[C@@H](OC)C[C@H](O[C@@H]5[C@@H](C)O[C@@]6(C[C@H]5OC)OCO[C@@H]5C[C@H](O[C@@H](C)[C@@]7(O)CC[C@H]8[C@@H]9CC=C%10C[C@@H](O)CC[C@]%10(C)[C@H]9CC[C@@]87C)O[C@H](C)[C@H]5O6)O[C@@H]4C)O[C@@H]3C)O[C@@H]2C)[C@@H]1OC(C)=O`, for which the figures for the 50% inhibitory concentration (IC50) (in the data set on T-cell; in data set [4]) were 0.18 µM and 1.13 µM, respectively. The selectivity ratio in data set [1] stood at 706; in data set [2] it was 110. The CC50 in data set [3] turned out to be 124 µM.

In the case of `CO[C@H]1C[C@H](O[C@H]2[C@@H](OC)C[C@H](O[C@H]3[C@H](O)C[C@H](O[C@H]4[C@@H](O)C[C@H](O[C@@H]5[C@@H](C)O[C@@]6(C[C@H]5OC)OCO[C@@H]5C[C@H](O[C@@H](C)[C@@]7(O)CC[C@H]8[C@@H]9CC=C%10C[C@@H](O)CC[C@]%10(C)[C@H]9CC[C@@]87C)O[C@H](C)[C@H]5O6)O[C@@H]4C)O[C@@H]3C)O[C@@H]2C)O[C@H](C)[C@H]1OC(C)=O`, the results for the IC50 (with T-cell; in data set [4]) were 1.47 µM and 1.74 µM, respectively. Also, the selectivity ratio is more than 136 in data set [1] and more than 145 in data set [2]. Besides, in data set [3], the CC50 is more than 200 µM.

For the origin of these results see ChEMBL document CHEMBL4184112, “Spiroorthoester group-containing pregnane glycosides from the root barks of Periploca chrysantha and their inhibitory activities against the proliferation of B and T lymphocytes” (Bioorg Med Chem Lett, 2018).
